Reference: US11191803B2, “Laminin receptor peptides for therapy” (priority 2017, dated 2021)
“And” between values parts separate entries of the source, which are not always exact repeats. Identical values can stand only once.

What was measured:
ALS/MND patients [1] = test: Second Phase III trial of Edaravone in a selected mildly symptomatic group; conditions: 24 weeks; mildly symptomatic subgroup
ALS/MND patients [2] = conditions: over 24 weeks; mildly symptomatic group; placebo lost 7.5 points; cited from earlier work
ALS/MND patients [3] = conditions: 24 week treatment; mixed patient population, median ALSFRS-R score 43; cited from earlier work
ALS/MND patients [4] = conditions: cited from earlier work
[5] = tested on: isolated rat islet cultures; test: Glucagon secretion from collagenase-isolated rat pancreatic islet cultures (Quantikine ELISA); format: cell-based, Wistar rats; conditions: peptide 1 μg/ml; for Glucagon level, Medium plus Peptide A: RPMI 1640, 11 mmol/L glucose, 10% FCS
Method: Digestion of pancreatic tissue with collagenase to isolate islets causes similar disruption to the signalling molecules via disorganization of ECM components including laminin, fibronectin and collagen (Lee & Blaufox, J Nucl Med, 1985, 25:72-76) that results in similarly abnormally high glucagon secretion.
Islets from 2 Wistar rats (˜250 g) were isolated according to the method of Li et al. (Nature Protocols, 2009, 4:1649-1652) and suspended in 30 ml RPMI 1640 containing 11 mmol/L glucose and 10% FCS. One ml islet suspension was added to each well of 24-well plates. Peptide A dimer (SEQ ID NO: 3) was dissolved in HBSS at 100 μg/ml and added to wells at a final concentration of 1 μg/ml. After appropriate incubation times, samples were removed for glucagon measurements using Quantikine ELISA Immunoassay (R&D Systems).

ALS/MND patients [6] = test: Clinical data: ALSFRS-R score in ALS/MND patients treated on a named patient basis for 6 months; format: in vivo, human
Text: Clinical data were obtained from 19 ALS/MND patients treated on a named patient basis, for a period of 6 months, with the Peptide A dimer (SEQ ID NO: 3).
Average time from diagnosis to treatment was 17.8 months and the decline rate from diagnosis to start of treatment was established for each patient, which averaged at −1.24+/−0.7 decline per month on the ALSFRS-R score. Mean ALSFRS-R score at start of treatment was 32.94+/−8.13, median score 36 (min-max 15-44).

pancreatic α-cell line = conditions: culture of a pancreatic α-cell line; cited from earlier work

Molecule: CC1=NN(c2ccccc2)C(=O)C1 [Edaravone]
- Slowing down of progression vs placebo (ALS/MND patients [1]): 33.3%
- Loss on the ALSFRS-R score (ALS/MND patients [2]): 5 points
- Efficacy in initial Phase III trial (ALS/MND patients [3]): failed to show any efficacy

Molecule: Nc1nc2ccc(OC(F)(F)F)cc2s1 [Riluzole]
- Functional advantage (ALS/MND patients [4]): no functional advantage demonstrated

Molecule: CVPSVPIQQFPTEDWS CVPSVPIQQFPTEDWS [Peptide A dimer]
- % Reduction of glucagon secretion vs medium alone ([5]; 4 hours): 31.6%
- Glucagon level, Medium plus Peptide A ([5]; 4 hours): 425.6 ± 14.8 pg/mL
- % Reduction of glucagon secretion vs medium alone ([5]; 24 hours): 44.8%
- Glucagon level, Medium plus Peptide A ([5]; 24 hours): 144.8 ± 8.8 pg/mL
- % Reduction of glucagon secretion vs medium alone ([5]; 72 hours): 55.2%
- Glucagon level, Medium plus Peptide A ([5]; 72 hours): 98.3 pg/mL and 98.3 ± 4.7 pg/mL
- Participants who stabilized and rose one point each on the ALSFRS-R scale, share of group (ALS/MND patients [6]; 2/19 patients): 10.5%
- % Slower Progression (actual vs predicted decline) (ALS/MND patients [6]; 19 ALS/MND patients): 62% and 62.07%
- ALSFRS-R Score, C Actual (ALS/MND patients [6]; 19 ALS/MND patients, actual score to time of analysis, baseline 32.94): 29.53 +/− 8.26
- Actual Decline (A-C) in ALSFRS-R score (ALS/MND patients [6]; 19 ALS/MND patients, predicted decline A-B = 8.99): A-C = 3.41
- % Slower Progression (actual vs predicted decline) (ALS/MND patients [6]; subgroup 7 of 19 patients with faster predicted decline): 76.6%
- ALSFRS-R Score, C Actual (ALS/MND patients [6]; subgroup 7 of 19 patients with faster predicted decline, baseline 30.43): 27.00 +/− 9.90
- Actual Decline (A-C) in ALSFRS-R score (ALS/MND patients [6]; subgroup 7 of 19 patients, predicted decline A-B = 14.7): A-C = 3.43

Molecule: methyl-β-cyclodextrin
- Glucagon secretion change (pancreatic α-cell line): doubling of the glucagon secretion
- Reduction of cholesterol (pancreatic α-cell line): approximately 60%
